Results as given in patent US20250205204A1, “Transcription Factor Brn2 Inhibitory Compounds for Use as Therapeutics” (The University of British Columbia, priority 2021, published 2025).
Read-outs that look alike come from different tables or passages of the source.

Columns and labels:
[1] = Metabolic stability in liver microsomes (MLM); format: in vitro ADME, mice; conditions: 0.25 mg/mL protein; for half-life at 1 μM: mouse, liver microsomes, pH 7.4, 1 μM compound, read-out: T1/2 in mins (MLM); for Met Stab % (60 mins) MLM: percent remaining at 60 min, 1 μM compound, 1 mM NADPH
Procedure: Preparation of Potassium Phosphate Buffer, 50 mM (pH 7.4)
Potassium phosphate buffer (Kphos) was prepared by adding 0.647 g potassium phosphate monobasic (KH2PO4) and 3.527 g potassium phosphate dibasic (KH2PO4) to 400 mL of Milli-Q™ water. pH of the buffer was adjusted to 7.4 and volume was made up to 500 mL.
Preparation of Microsomes
Stock solutions of BRN2 inhibitors were prepared in DMSO at a concentration of 1 mM
Preparation of NADPH Solution
• Total Incubation volume: 100 μL • Compound concentration: 1 μM • Protein Concentration: 0.25 mg/mL • NADPH: 1 mM • Final DMSO contain: 0.1% • Number of replicates: 2 • Time points: 0, 5, 15, 30 and 60 min
From the above mix, 70 μL was added to individual wells of 96 well reaction plates and pre-incubated in a 37° C. water bath for 5 min. […] Reactions without NADPH and buffer controls (minus NADPH) at 0 min and 60 min were also incubated to rule out non-NADPH metabolism or chemical instability in the incubation buffer. All reactions were terminated using 100 μL of ice-cold acetonitrile containing internal standard at 0, 5, 15, 30 and 60 min.
Samples were monitored for parent compounds disappearance in MRM mode using LC-MS/MS.
The percent remaining of test compounds and positive control in each sample was determined by considering peak area ratio in the 0 minute sample as 100%. The Half-life of compounds in microsomes is calculated by formula: […]
In vitro intrinsic clearance (CL'int) (units in mL/min/kg) was calculated using the formula.
[formula] • For liver microsomes, scaling factor used was 45 mg microsomal protein per gm liver. • * Indicates liver weight (gm) which varies species wise. For mice the liver weights are 90 gm.

42D^ENZR cells = test: Cell proliferation, BRN2 expressing 42D cells (crystal violet); format: cell-based; conditions: for Growth Specificity: 42D (express BRN2) versus 16D (no BRN2) cells, result in words
Procedure: (§1) Step 3: Cell Proliferation
(§2) Plate 42DE^NZR (˜7000 cells per well) and 16D^CRPC (˜5000 cells per well) cells in 96 well plate with a volume of 100 μL per well. • 2. Next day 1 mL aliquots of media are combined with 3× the desired concentration of compounds. The aliquots are vortexed and 50 μL of each 3× concentration is added to the 100 μL of media in each well to give the ix desired concentration.
(§3) The following are the desired concentrations:
(§4) Approximately 72 hours later, 17 μL of 10% Glutaraldehyde is added to each well and plates are placed on a shaker for 20-30 minutes. • 4. Media is washed off the fixed cells by slow submersion in a container of water. Then the water is removed by tapping the plate upside down. • 5. 75 μL of Crystal Violet™ solution is added into the 96 well plates and placed on a shaker for ˜30 minutes. • 6. Media is washed off the fixed cells by repeated slow submersion in a container of water and the plates are allowed to dry over-night. • 7. Next day, 75 μL of Sorensen Solution is accurately pipetted into each well. The plates placed on a shaker for ˜30 minutes. • 8. Absorbance is measured in the plate at 590 nm.
There is a distinction in TABLES 1 and 2 difference between “Active” and “Specific” or “Specificity”.

16D^CRPC cells = test: Cell proliferation, 16D cells that do not express BRN2 (crystal violet); format: cell-based; conditions: for effect on 16D: result in words; for concentration above which 16D is affected: proliferation
Procedure: as §1, §2, §3
as §4, with “0, 10 nM, 100 nM, 500 nM, 1 μM, 2.5 μM, 5 μM, 10 μM, 15 μM, 20 μM, 30 μM. • 3. Approximately” for “Approximately”, “nm. Compounds that Show Specificity Towards 42DE^NZR Cells Vs 16D^CRPC Cells Progress to Step 4.” for “nm.”
In TABLES 1 and 2, in columns Met Stab % and T½, refers to compound's stability in MLM. There is a distinction in TABLES 1 and 2 difference between “Active” and “Specific” or “Specificity”. Some of the compounds were first tested to quantify inhibition of BRN2 transcriptional activity in a luciferase assay to determine BRN2 inhibition at 10 μM and 30 μM concentrations. […] Generally, compounds having low inhibitory activity were compounds with less than about ˜30% or activation at either concentration (i.e. 10 μM or 30 μM). Furthermore, some compounds that lacked specificity could also show off-target effects.

BRN2 = biological target: T1, BRN2 (Homo sapiens, UniProt P20265); test: BLI binding; conditions: result in words
T1 sequence (P20265 1-443): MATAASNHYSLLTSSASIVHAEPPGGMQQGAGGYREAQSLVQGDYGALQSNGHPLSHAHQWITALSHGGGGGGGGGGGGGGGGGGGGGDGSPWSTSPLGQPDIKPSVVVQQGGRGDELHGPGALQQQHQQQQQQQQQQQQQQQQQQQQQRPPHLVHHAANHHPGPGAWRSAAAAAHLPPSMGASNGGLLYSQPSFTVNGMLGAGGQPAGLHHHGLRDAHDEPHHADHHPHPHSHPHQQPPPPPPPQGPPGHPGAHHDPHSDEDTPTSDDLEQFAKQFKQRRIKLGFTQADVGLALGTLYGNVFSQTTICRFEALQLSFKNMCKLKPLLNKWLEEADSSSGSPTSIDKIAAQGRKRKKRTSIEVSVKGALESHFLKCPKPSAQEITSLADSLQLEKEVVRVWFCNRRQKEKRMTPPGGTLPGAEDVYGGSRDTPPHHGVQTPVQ

[2] = 42D cells, proliferation, about 72 hours, read-out: 42D IC50

Structure (SMILES) | half-life at 1 μM [1] | Met Stab % (60 mins) MLM [1] | Growth Specificity (42D^ENZR cells; about 72 hours) | IC50 (42D^ENZR cells; [2]) | effect on 16D (16D^CRPC cells) | BLI binding (BRN2) | concentration above which 16D is affected (16D^CRPC cells) | IC50 (42D^ENZR cells; read-out: IC50 (effective on both 42D and 16D cells))
Fc1cccc2nc(N/N=C3/CCc4ccccc43)sc12 [7-65] | 6 min | 0% | Specific to 42D | 10 µM | no effect on 16D |  |  | 
c1ccc2sc(N/N=C3/CCc4ccncc43)nc2c1 [7-66] | 8 min | 1% | Specific to 42D | 10 µM | no effect on 16D |  |  | 
CC(C)Oc1ccc2c(c1)C/C(=N/Nc1nc3ccccc3s1)C2=O [7-73, (Z)-2-(2-(benzo[d]thiazol-2-yl)hydrazineylidene)-5-isopropoxy-2,3-dihydro-1H-inden-1-one] | 26 min | 19% | Specific to 42D at low doses |  |  | Positive binding | > 15 µM | 
CC(C)Oc1ccc2c(c1)C(=O)/C(=N\Nc1nc3ccccc3s1)C2 [7-74, (Z)-2-(2-(benzo[d]thiazol-2-yl)hydrazineylidene)-6-isopropoxy-2,3-dihydro-1H-inden-1-one] | 17 min | 6% | Specific to 42D at low doses |  |  | Positive binding | > 20 µM | 
O=C1/C(=N\Nc2nc3ccccc3s2)Cc2cc(F)cc(F)c21 [7-102] | 56 min | 46% | Specific to 42D cells | ~2.5 µM |  | Positive binding but not strong |  | 
O=C1/C(=N\Nc2nc3ccccc3s2)Cc2cc(O)ccc21 [7-121] | 36 min | 30% | Not specific |  |  | Positive binding |  | 
O=C1/C(=N\Nc2nc3ccccc3s2)Cc2cc(C3CC3)ccc21 [7-105] | > 60 min | 75% | Not specific |  |  | No binding |  | 
O=C1C/C(=N/Nc2nc3ccccc3s2)c2ccccc21 [7-52] | 23 min | 9% | effective on both 42D and 16D cells |  |  | Positive |  | 3 to 7 µM
O=C1/C(=N\Nc2nc3ccccc3s2)Cc2ccc(Cl)cc21 [7-72] | 17 min | 8% | Specific to 42D at low doses |  |  |  | > 15 µM | 
O=C1/C(=N\Nc2nc3ccccc3s2)Cc2cc(F)c(Cl)cc21 [7-100] | 38 min | 30% | Specific to 42D | ~2 µM |  | Positive binding |  | 
CCN(CC)c1ccc2c(c1)C(=O)/C(=N\Nc1nc3ccccc3s1)C2 [7-109] | 13 min | 3% | Not specific |  |  | Positive binding |  | 
CN(C)c1ccc2c(c1)C/C(=N/Nc1nc3ccccc3s1)C2=O [7-127] | 23 min | 14% | Not specific |  |  | No binding |  | 
O=C1/C(=N\Nc2nc3ccccc3s2)Nc2cc(F)ccc21 [7-123] | 25 min | 18% | Not specific |  |  | No binding |  | 
O=C1/C(=N\Nc2nc3ccccc3s2)Cc2cc(N3CCCCC3)ccc21 [7-112] | 32 min | 26% | Not specific |  |  | No binding |  | 
O=C1/C(=N\Nc2nc3ccccc3s2)Cc2cc(Cl)ccc21 [7-71, (Z)-2-(2-(benzo[d]thiazol-2-yl)hydrazineylidene)-5-chloro-2,3-dihydro-1H-inden-1-one] | 47 min | 35% | Specific to 42D but weak | ~15 µM |  | Positive binding |  | 
